Laboratory results published in PMC8989888, “Development of optimized drug-like small molecule inhibitors of the SARS-CoV-2 3CL protease for treatment of COVID-19” (Nature Communications, 2022).
Several values for one entry are separate records, joined by “and”; a condition that tells them apart may be missing. Identical values can stand only once.

System: SARS-CoV-2
Assay: microbe, parasite or virus in culture
Assay type: cell-based

Structure (SMILES)	inhibition of SARS-CoV-2 (Figure S17A dose-response, replicate values)
CC(C)C[C@H](NC(=O)OCc1ccccc1Cl)C(=O)N[C@@H](C[C@@H]1CCNC1=O)C(O)S(=O)(=O)O (stereo partly shown) [EB54]	0 (6×) and 100 (6×) and 50 (3×) and 12.5 (4×) and 25 (2×)
CC(C)C[C@H](NC(=O)OCc1cccc2ccccc12)C(=O)N[C@@H](C[C@@H]1CCNC1=O)C(O)S(=O)(=O)O (stereo partly shown) [EB55]	0 (10×) and 100 (4×) and 93.75 (2×) and 12.5 (5×)
O=C(N[C@@H](CC1CCCCC1)C(=O)N[C@@H](C[C@@H]1CCNC1=O)C(O)S(=O)(=O)O)OCc1cccc(Cl)c1 (stereo partly shown) [EB48]	0 (11×) and 68.75 and 75 and 93.75 and 25 (3×) and 50 and 37.5 and 12.5 (2×)
O=C(N[C@@H](CC1CCCCC1)C(=O)N[C@@H](C[C@@H]1CCNC1=O)C(O)S(=O)(=O)O)OCc1ccccc1 (stereo partly shown) [SL-4-241]	0 (14×) and 100 (2×) and 81.25 and 25 (2×) and 12.5 (2×)
CC(C)C[C@H](NC(=O)OCc1cccc(Cl)c1)C(=O)N[C@@H](C[C@@H]1CCNC1=O)C(O)S(=O)(=O)O (stereo partly shown) [EB46]	0 (10×) and 100 (6×) and 37.5 (2×) and 50 and 12.5 (2×)
CC(C)CC(NC(=O)OCc1ccccc1)C(=O)NC(CC1CCNC1=O)C(O)S(=O)(=O)O (stereo not shown) [GC376, reference compound]	0 (14×) and 87.5 and 93.75 and 100 and 37.5 and 62.5 and 68.75 and 12.5
CC(C)C[C@H](NC(=O)OCc1ccc2ccccc2c1)C(=O)N[C@@H](C[C@@H]1CCNC1=O)C(O)S(=O)(=O)O (stereo partly shown) [EB56]	0 (5×) and 12.5 (8×) and 93.75 (3×) and 87.5 (3×) and 50 and 25
